Measured values: patent US20250346564A1 (ARase Therapeutics Inc., priority 2022, published 2025)

Assays:
PARG [1] = biological target: T1, PARG (Homo sapiens (Human), UniProt Q86W56); assay: PARG target engagement cellular assay (PAR polymer immunostaining after cisplatin); format: cell-based; conditions: HCC1806 cells treated with cisplatin, then compound titration for 1 h; PAR polymer antibody readout
Method: Example a. Inhibition of PARG Target Engagement Cellular Assay
The ability of the compounds of the Examples to inhibit PARG was determined as described below. After treating HCC1806 cells with cisplatin, followed by PARG inhibitor compound titration for 1 h, the cells were fixed in formaldehyde. The cells were permeabilized, blocked, and incubated with antibody against poly (ADP) ribose (PAR) polymer. The cells were then washed and incubated with IR 800 conjugated secondary antibody together with TO-PRO3 iodide nuclear stain. After washing, images of the cells were captured and analyzed on Odyssey CLx instrument and analyzed using LI-COR image studio software.

PARG [2] = biological target: T1, PARG; assay: PARG TFMU assay (4-(trifluoromethyl)umbelliferone substrate); format: biochemical; conditions: PARG 250 pM or 2 nM, 10-point dose response
Method: Example C. Inhibition of PARG TEMU Assay
The ability of the compounds of the Examples to inhibit PARG activity in 4. (trifluoromethyl)umbelliferone (TFMU) assay was determined as described below. PARG inhibitors were added into 384 well plate for a 10-point dose response curve at 1:3 dilutions. TFMU PARG substrate and PARG (250 pM or 2 nM) were then added to the plate to initiate enzymatic reaction. After incubation with the reagent, […] was read. IC50 values were calculated using set control points for 100% inhibition as no enzyme and 0% inhibition 250 pM or 2 nM of PARG enzyme.

T1 sequence (Q86W56 whole entry): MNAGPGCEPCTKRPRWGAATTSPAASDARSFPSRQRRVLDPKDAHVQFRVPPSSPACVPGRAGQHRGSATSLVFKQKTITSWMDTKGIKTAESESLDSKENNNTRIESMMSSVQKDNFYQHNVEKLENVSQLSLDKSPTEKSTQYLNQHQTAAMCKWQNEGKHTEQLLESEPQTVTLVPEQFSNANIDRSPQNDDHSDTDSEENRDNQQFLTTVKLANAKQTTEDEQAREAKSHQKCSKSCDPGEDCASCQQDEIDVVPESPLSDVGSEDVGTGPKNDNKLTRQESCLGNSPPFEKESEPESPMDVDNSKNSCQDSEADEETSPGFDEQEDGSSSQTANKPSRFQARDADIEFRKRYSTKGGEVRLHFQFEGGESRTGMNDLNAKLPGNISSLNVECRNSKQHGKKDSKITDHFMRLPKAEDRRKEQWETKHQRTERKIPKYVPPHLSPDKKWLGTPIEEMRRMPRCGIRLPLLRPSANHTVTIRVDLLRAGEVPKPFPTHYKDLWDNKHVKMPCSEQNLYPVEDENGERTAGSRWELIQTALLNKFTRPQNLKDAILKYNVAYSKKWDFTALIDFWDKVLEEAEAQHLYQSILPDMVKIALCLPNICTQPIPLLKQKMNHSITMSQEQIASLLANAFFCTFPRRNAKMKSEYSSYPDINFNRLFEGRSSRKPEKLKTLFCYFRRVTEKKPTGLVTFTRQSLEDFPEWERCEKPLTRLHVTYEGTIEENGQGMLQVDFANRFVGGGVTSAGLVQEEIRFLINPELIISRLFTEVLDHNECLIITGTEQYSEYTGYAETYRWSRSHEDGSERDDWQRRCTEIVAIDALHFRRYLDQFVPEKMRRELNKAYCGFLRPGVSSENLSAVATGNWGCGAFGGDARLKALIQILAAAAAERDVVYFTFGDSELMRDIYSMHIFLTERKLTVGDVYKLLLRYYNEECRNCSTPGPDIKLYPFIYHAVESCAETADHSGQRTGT

IC50 (PARG [1]): < 10 µM
IC50 (PARG [2]): 500 to 5000 nM
SMILES: COC(=O)/C=C/Cn1c(=O)c2cc(S(=O)(=O)NC3(C)COC3)ccc2n(CC2COC2)c1=O [Example 11, methyl (2E)-4-{6-[(3-methyloxetan-3-yl)sulfamoyl]-1-(oxetan-3-ylmethyl)-2,4-dioxoquinazolin-3-yl}but-2-enoate]
